Measurements as given in patent US7947854B2, “Bis-cationic compounds and use thereof” (The University of Sydney, priority 2003, dated 2011).
Values joined by “and” are separate entries in the source; they are usually repeats but may differ in a detail not shown here. Equal values may be shown once. Read-outs that look alike come from different tables or passages of the source.

Experiments:
M. gypseum = assay: Susceptibility of dermatophytes, broth microdilution NCCLS M38-P; type: cell-based; details: for MIC: Nannizzia gypsea
Experimental: (§1) Isolates were tested using the method described in the National Committee for Clinical Laboratory Standards (NCCLS) document M38-P for filamentous fungi, with dermatophyte specific modifications described by Fernández-Torres et al, Current topics in Medical Mycology, 14-19 Feb. 1999.
(§2) Five dermatophyte isolates were, namely; T. rubrum, T. mentagrophytes, T. tonsurans, M. canis and M. gypseum, all of which produce lipases and some, phospholipase. These isolates were tested by the broth microdilution method according to NCCLS document M38-P, for activity against selected antifungal agents. In addition, ten randomly selected isolates of T. tonsurans were also tested. All isolates were maintained on SDA at 28° C. Candida parapsilosis (ATCC 20019) was used as the reference control is organism.
(§3) The microdilution plates used were a single lot of RPMI 1640 basal medium (JRH bioScience Inc. Lenexa, Kans., USA) with L-glutamine and without sodium bicarbonate, buffered to pH 7.0, at 25° C., with 0.165 M (MOPS) morpholinepropanesulfonic acid (Sigma).
(§4) Powdered drugs were dissolved in 100% dimethyl sulfoxide (DMSO), at concentrations 100 times higher than the final test concentration. All compounds were prepared in 100% (DMSO). For ITRA and TRB, two-fold drug dilutions were prepared in 100% DMSO at 100 times the final concentration, followed by further dilution 1:50 in RPMI medium, to yield 2× the final strength required for the test.
(§5) Fungal cultures were subcultured onto Potato Dextrose Agar and grown at 28° C. for 7-10 days. Fungal suspensions were covered with 5 ml of distilled water, and then colonies were scraped off with cotton tipped swabs. The resulting mixture of conidia and hyphae elements was withdrawn, transferred to a sterile tube and then vortexed with glass beads. After the particles settled, the upper homogeneous suspension was collected and its density adjusted by a densitometer to a 0.5 McFarland standard at the wavelength of 530 nm (80-85% transmittance). These stock suspensions were then diluted 1:50 with RPMI medium to obtain final working inoculum concentration ranging from 0.3×10^4 to 9×10^4 CFU/ml. Inoculum quantification was performed by plating 100 μl of the 1:1000 dilution of the adjusted inoculum on SDA plates, incubated at 28° C., and after 7 days of incubation, the colonies were counted.
(§6) Testing was based on NCCLS M38-P document for testing filamentous moulds. Testing was carried out in sterile 96-well flat bottomed microtitre plate. Columns 1 and 3 to 12 were filled with 100 μl of RPMI medium, leaving column 2 unfilled. Columns 1, 2 and 3 were filled with 100 μl of 2× drug concentration. Serial dilutions were then made by transferring 100 μl from column 3 to each column up to column 11, and 100 μl from column 11 was discarded. Column 12 served as drug free growth control. Finally, 100 μl of inoculum suspension was added to all wells except column 1, which acted as sterility control (Columns 1 and 12 served as sterility and growth control respectively). Plates were incubated at 28° C. for 7 days, and read at 3 days and 7 days of incubation. All testing was performed in duplicate, on three separate occasions.
(§7) Growth in microtitre trays were read by visual inspection by using an illuminated-reversed mirror. Growth in each well was compared with the “growth control” drug free well. The MIC end point for all the drugs was chosen to be the first well with 100% growth inhibition (i.e. the lowest drug concentration inhibiting growth).

M. canis = assay: as above; type: cell-based; details: for MIC: Microsporum canis
Experimental: as §1, §2, §3, §4, §5, §6, §7

T. rubrum = assay: as above; type: cell-based; details: for MIC: Trichophyton rubrum
Experimental: as §1, §2, §3, §4, §5, §6, §7

T. tonsurans = assay: as above; type: cell-based; details: for MIC: Trichophyton tonsurans
Experimental: as §1, §2, §3, §4, §5, §6, §7

[1] = target: T1, Porcine pancreatic phospholipase A2 (Sus scrofa, UniProt P00592); assay: Pancreatic phospholipase assay; type: biochemical; details: read-out: ppPLA2, percentage inhibition of activity
T1 construct: purchased Sigma, St. Louis MO, USA
T1 sequence (P00592 23-146): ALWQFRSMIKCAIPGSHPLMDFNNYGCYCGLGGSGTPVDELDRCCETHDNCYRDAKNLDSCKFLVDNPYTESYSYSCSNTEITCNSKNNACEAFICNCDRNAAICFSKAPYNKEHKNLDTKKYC
Experimental: Pancreatic phospholipase assay. Porcine pancreatic phospholipase A2 suspension in 3.2M ammonium sulfate (2.9 mg protein/mL, Sigma St.Louis Mo., USA) was used. One part of well mixed enzyme suspension was added to 4 parts of buffer (10 mM Tris/HCl, pH 8.2; 10 mM CaCl2. Activity and inhibition by test compounds was then measured by the radiometric method described in Example 2 for fungal PLB activity. However, 25 μL enzyme solution was used, and the reaction time was 1 hour. These conditions result in ˜60% substrate conversion in the inhibitor-free control.

erythrocyte = type: cell-based; details: 37° C., 1 h
In short: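 Washed human erythrocytes (K-EDTA blood, PBS-washed; final approx. 0.5×10^9 cells/mL) were incubated with test substance for 1 h at 37° C, then centrifuged. Haemoglobin release in the supernatant was read at 540 nm and expressed as % lysis against PBS (0%) and 0.1% Triton X-100 (100%); triplicates.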

Structure (SMILES) | inhibition at 0.25 µM [1] | inhibition at 2.5 µM [1] | inhibition at 25 µM [1] | inhibition at 250 µM [1] | Haemolytic assay (%) (erythrocyte; 3.5 μM) | Haemolytic assay (%) (erythrocyte; 35 μM) | Haemolytic assay (%) (erythrocyte; 88 μM) | Haemolytic assay (%) (erythrocyte; 175 μM) | Haemolytic assay (%) (erythrocyte; 350 μM) | other results
CCCC[N+](CCCC)(CCCC)CCCCCCCCCCCC[N+](CCCC)(CCCC)CCCC [Compound 3, 1,12-bis(tributylammonium)do-decane dibromide] | 0% | 0% | 36% | 86% | – | – | – | – | – | MIC Range, M. gypseum (M. gypseum; 100% growth inhibition, 28° C.): 1.9 to 7.6 µg/mL; MIC (M. gypseum; 100% growth inhibition, 28° C., read-out: MIC GM, M. gypseum): 3.8 µg/mL; MIC (M. gypseum; 100% growth inhibition, 28° C., read-out: MIC Mean, M. gypseum): 4.75 µg/mL; MIC Range, M. canis (M. canis; 100% growth inhibition, 28° C.): 3.8 to 7.6 µg/mL; MIC (M. canis; 100% growth inhibition, 28° C., read-out: MIC GM, M. canis): 6.03 µg/mL; MIC (M. canis; 100% growth inhibition, 28° C., read-out: MIC Mean, M. canis): 6.33 µg/mL; MIC Range, T. rubrum (T. rubrum; 100% growth inhibition, 28° C.): 3.8 to 7.6 µg/mL; MIC (T. rubrum; 100% growth inhibition, 28° C., read-out: MIC GM, T. rubrum): 5.37 µg/mL; MIC (T. rubrum; 100% growth inhibition, 28° C., read-out: MIC Mean, T. rubrum): 5.7 µg/mL; MIC Range, T. tonsurans (T. tonsurans; 100% growth inhibition, 28° C.): 1.9 to 7.6 µg/mL; MIC (T. tonsurans; 100% growth inhibition, 28° C., read-out: MIC GM, T. tonsurans): 3.38 µg/mL; MIC (T. tonsurans; 100% growth inhibition, 28° C., read-out: MIC Mean, T. tonsurans): 3.8 µg/mL
CCCC[P+](CCCC)(CCCC)CCCCCCCCCCCC[P+](CCCC)(CCCC)CCCC [Compound 1, 1,12-bis(tributylphosphonium)dodecane dibromide] | 0% | 5% | 62% | 97% | 0% | 0% | 0% | 0% | 0% | Haemolytic assay (%) (erythrocyte; 700 μM): 75%
CCCC[N+](CCCC)(CCCC)CCCCCCCCCCCC[N+](CCCC)(CCCC)CCCC [1,12-Bis-(tributylammonium)dodecane dichloride] | – | – | – | – | 0% | 0% | 0% | 5% | 100% | MIC (M. gypseum; Table 9, read-out: MIC M. gypseum): 3.8 µg/mL and 6.3 µM; MIC (M. canis; Table 9, read-out: MIC M. canis): 5.7 µg/mL and 9.4 µM; MIC (T. rubrum; Table 9, read-out: MIC T. rubrum): 5.7 µg/mL and 9.4 µM; MIC (T. tonsurans; Table 9, read-out: MIC T. tonsurans): 3.8 µg/mL and 6.2 µM
